Experimental data published in article PMC10143848 (Viruses, 2023).

How the values were obtained:
[1] = system: IL-6, IL-8, and TNF-α; assay: Cytokine determination by ELISA in TLR2/6 and TLR3 ligand-stimulated cells; type: cell-based; settings: A549, Hep-2, J774A.1; TLR2/6 and TLR3 ligands for 6 h / 8 h (Fig. S3); A18 25, BAY 11-7085 10
[2] = system: NF-κB signaling pathway; assay: NF-κB-LUC reporter gene assay in RSV A2-infected cells; type: cell-based; settings: Hep-2, A549, J774A.1 cells infected with RSV A2 moi 1, 6 h; A18 25 μg/mL, BAY 11-7085 10 mg/mL (so in the source)
[3] = system: IL-6, IL-8, and TNF-α; assay: Cytokine determination by ELISA in RSV A2-infected cells; type: cell-based; settings: RSV A2 moi 1, 24 h, A18 25 mg/mL, BAY 11-7085 10 mg/mL (so in the source); for IL-6 production vs RSV-infected control cells: Hep-2, A549, J774A.1 cells; for TNF-α production vs RSV-infected control cells: J774A.1 macrophages; for IL-8 production vs RSV-infected control cells: epithelial cells (Hep-2, A549)
[4] = system: SARS-CoV-2 viral main protease; parameters: method as in ref 36 = [36]; settings: in silico finding; compounds from E. purpurea; cited from earlier work
[5] = system: Canine Coronavirus; assay: microbe, parasite or virus in culture; settings: Alphacoronavirus 1, CRFK, 24 h
[6] = system: SARS-CoV-2; type: cell-based
[7] = system: HSV-1 Field; assay: microbe, parasite or virus in culture; settings: Human alphaherpesvirus 1, HCLE, 24 h
[8] = system: SARS-CoV-2; assay: microbe, parasite or virus in culture; settings: Severe acute respiratory syndrome coronavirus 2, Calu-3, 24 h
[9] = system: HSV-1 KOS
[10] = system: HSV-1 B2006
[11] = system: HSV-1 B2006; assay: microbe, parasite or virus in culture; settings: Human alphaherpesvirus 1, HCLE, 24 h
[12] = in vitro; type: cell-based; settings: human (HEp-2, A549, HCLE, Calu-3); cat (CRFK)
[13] = system: SARS-CoV-2 spike protein; parameters: method as in ref 37 = [37]; settings: molecular docking and dynamics simulation; cited from earlier work
[14] = system: HSV-1 Field
[15] = system: SARS-CoV-2
[16] = system: SARS-CoV-2; assay: Adsorption and penetration assay, SARS-CoV-2; type: cell-based; settings: calu-3 cells
[17] = system: Canine Coronavirus
[18] = system: airway hyperreactivity (AHR); parameters: method as in ref 14 = [14]; settings: i.p. (6 mg/kg/day) and i.n. (3 mg/kg/day), mouse models of steroid-resistant and severe asthma; cited from earlier work
[19] = system: RSV Line 19; assay: microbe, parasite or virus in culture; settings: human respiratory syncytial virus
[20] = system: RSV A2; assay: Virus yield inhibition assay, RSV A2; type: cell-based; settings: human respiratory syncytial virus, moi 0.1, 24 h, virus yield by plaque assay
[21] = system: HSV-1 KOS; assay: microbe, parasite or virus in culture; settings: Human alphaherpesvirus 1, HCLE, 24 h
[22] = system: IL-6, IL-4, IL-17A, IFN-γ; assay: Pulmonary cytokines qRT-PCR in RSV-infected mice; type: in vivo, Balb/C mice; settings: RSV-infected mice treated with A18, day 8 p.i.
[23] = system: HSV-1 KOS; assay: Adsorption and penetration assay, HSV-1 KOS; type: cell-based; settings: HCLE cells
[24] = system: RSV line 19 and A2; assay: Pulmonary RSV infection in mouse model; type: in vivo, Balb/C mice
[25] = system: RSV A2; assay: Adsorption and penetration assay, RSV A2; type: cell-based, Human RSV; settings: A549 cells
[26] = system: RSV A2; assay: RSV qRT-PCR assay (viral RNA synthesis); type: cell-based, Human RSV; settings: A549 and Hep-2 cells, A18 25 mg/mL (so in the source), 6 h, 15 h and 24 h p.i.
[27] = system: RSV A2; assay: Immunofluorescence, RSV gF expression in infected cells; type: cell-based, Human RSV; settings: RSV A2 moi 1, 25 μg/mL of A18, 24 h p.i.

## CC(C)(C)c1ccc(S(=O)(=O)/C=C/C#N)cc1 [BAY 11-7085, reference compound]
[1]
  IL-6 production in TLR ligand-stimulated cells: significantly inhibited
  IL-8 production in TLR ligand-stimulated cells: significantly inhibited
  TNF-a production in TLR ligand-stimulated cells: significantly inhibited
[2]
  NF-κB activation (NF-κB-LUC luciferase activity): strongly inhibited
[3]
  IL-6 production vs RSV-infected control cells: significantly reduced
  TNF-α production vs RSV-infected control cells: significantly reduced
  IL-8 production vs RSV-infected control cells: significantly reduced

## O=C(O)CC(=O)OC[C@H]1O[C@@H](Oc2cc3c(O)cc(O)cc3[o+]c2-c2ccc(O)c(O)c2)[C@H](O)[C@@H](O)[C@@H]1O [Cyanidin 3-(6″-malonylglucoside)]
[4]
  inhibitory potential against SARS-CoV-2 via inhibition of viral main protease: good inhibitory potential

## Oc1cc(O)c2cc(O)c(-c3ccc(O)c(O)c3)[o+]c2c1 [A18, Cyanidin chloride]
[5]
  EC50: 7.7 ± 0.1 µg/mL
[6]
  infected and treated cells expressing Spike protein: 7%
[7]
  EC50: 7.6 ± 0.05 µg/mL
[8]
  EC50: 8.9 ± 0.09 µg/mL
[9]
  SI (ratio CC50/EC50): 46
[10]
  SI (ratio CC50/EC50): 43
[1]
  IL-6 production in TLR ligand-stimulated cells: significantly inhibited
  IL-8 production in TLR ligand-stimulated cells: significantly inhibited
  TNF-a production in TLR ligand-stimulated cells: significantly inhibited
[11]
  EC50: 4.6 ± 0.05 µg/mL
[2]
  NF-κB activation (NF-κB-LUC luciferase activity): strongly inhibited
[12]
  CC50 at 24 h: > 200 µg/mL
[13]
  predicted interaction with SARS-CoV-2 spike protein: interacts with spike protein
[14]
  SI (ratio CC50/EC50): 26
[15]
  SI (ratio CC50/EC50): 23
[3]
  IL-6 production vs RSV-infected control cells: significantly reduced
  TNF-α production vs RSV-infected control cells: significantly reduced
  IL-8 production vs RSV-infected control cells: significantly reduced
[16]; SARS-CoV-2 moi 1, 25 μg/mL of A18, 1 h at 4 °C
  virus adsorption: virus yield after treatment during binding stage: significant reduction of viral plaque formation
[16]; SARS-CoV-2 moi 1, 25 μg/mL of A18, 2 h at 37 °C
  virus internalization: viral infectivity after treatment during internalization: did not reduce viral infectivity
[17]
  SI (ratio CC50/EC50): 26
[18]
  airway hyperreactivity (AHR): alleviated airway hyperreactivity (AHR)
[19]; A549, 24 h
  EC50: 9.8 ± 0.08 µg/mL
[19]; HEp-2, 24 h
  EC50: 8 ± 0.1 µg/mL
[20]; RSV A2 in A549 cells
  EC50: 8.5 ± 0.1 µg/mL
[20]; RSV A2 in HEp-2 cells
  EC50: 3 ± 0.06 µg/mL
[21]
  EC50: 5.5 ± 0.1 µg/mL
[22]
  pulmonary IFN-g levels, treated vs not treated: did not observe statistical differences
  pulmonary IL-4 gene expression vs untreated infected animals: significantly lower levels
  pulmonary IL-6 gene expression vs untreated infected animals: significantly lower levels
  pulmonary IL-17A gene expression vs untreated infected animals: significantly lower levels
[23]; HSV-1 KOS moi 1, 25 μg/mL of A18, 1 h at 4 °C
  virus adsorption: virus yield after treatment during binding stage: significant reduction of viral plaque formation
[23]; HSV-1 KOS moi 1, 25 μg/mL of A18, 2 h at 37 °C
  virus internalization: viral infectivity after treatment during internalization: did not reduce viral infectivity
[24]; Balb/c mice, RSV A2 and line 19, A18 6 mg/kg i.p. or 3 mg/kg i.n. daily days 0-4, day 2 p.i. and entire course
  weight loss vs untreated infected controls: significantly less weight loss
[24]; Balb/c mice, RSV A2 and line 19, A18 6 mg/kg i.p. or 3 mg/kg i.n. daily, day 4 p.i.
  RSV titers in the lung vs untreated animals: significantly lower
[24]; RSV A2 and line 19 infected mice, H&E-stained lungs, day 8 p.i.
  lung histology, semiquantitative histological scoring (Inflammation Index): significantly reduced RSV-induced pathological damage
[25]; RSV A2 moi 1, 25 μg/mL of A18, 1 h at 4 °C
  virus adsorption: virus yield after treatment during binding stage: significant reduction of viral plaque formation
[25]; RSV A2 moi 1, 25 μg/mL of A18, 2 h at 37 °C
  virus internalization: viral infectivity after treatment during internalization: did not reduce viral infectivity
[26]
  relative contents of viral RNA vs untreated infected cells: significantly reduced
[27]; A549 cells, infected control 93%
  infected and treated cells expressing gF: 23%
[27]; HEp-2 cells, infected control 96%
  infected and treated cells expressing gF: 10%

## OC[C@H]1O[C@@H](Oc2cc3c(O[C@@H]4O[C@H](CO)[C@@H](O)[C@H](O)[C@H]4O)cc(O)cc3[o+]c2-c2ccc(O)c(O)c2)[C@H](O)[C@@H](O)[C@@H]1O [Cyanin]
[4]
  inhibitory potential against SARS-CoV-2 via inhibition of viral main protease: good inhibitory potential
